Measurements from ChEMBL document CHEMBL4814020, “Nonbisphosphonate inhibitors of Plasmodium falciparum FPPS/GGPPS” (Bioorg Med Chem Lett, 2021).
In brackets after ≈: the same amount, converted by molar mass. One block for each compound: values may come before it.

Assays:
[1] = Inhibition of recombinant Plasmodium falciparum N-terminal His6-tagged GGPPS expressed in Escherichia coli expression system assessed as reduction in pyrophosphate release using GPP as substrate incubated for 30 mins followed by substrate addition by PPiLight detection reagent based luminescence assay
[2] = target: T1, Geranylgeranyl pyrophosphate synthase (Homo sapiens, UniProt O95749); test: Inhibition of recombinant human N-terminal His6-tagged GGPPS assessed as reduction in pyrophosphate release using GPP as substrate upto 200 uM incubated for 30 mins followed by substrate addition by PPiLight detection reagent based luminescence assay; details: 0.5 h
T1 sequence (O95749 whole entry): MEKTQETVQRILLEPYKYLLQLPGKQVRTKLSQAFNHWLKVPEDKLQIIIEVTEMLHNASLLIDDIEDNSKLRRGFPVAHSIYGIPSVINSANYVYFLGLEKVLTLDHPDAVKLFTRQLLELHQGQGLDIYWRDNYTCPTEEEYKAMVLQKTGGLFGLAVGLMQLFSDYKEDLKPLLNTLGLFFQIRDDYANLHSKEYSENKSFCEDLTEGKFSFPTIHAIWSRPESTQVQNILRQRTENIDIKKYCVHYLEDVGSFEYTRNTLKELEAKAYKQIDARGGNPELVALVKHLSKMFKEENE

[3] = target: T2, Farnesyl pyrophosphate synthase (Homo sapiens, UniProt P14324); test: Inhibition of recombinant human N-terminal His6-tagged FPPS assessed as reduction in pyrophosphate release using GPP as substrate upto 200 uM incubated for 30 mins followed by substrate addition by PPiLight detection reagent based luminescence assay; details: 0.5 h
T2 sequence (P14324 whole entry): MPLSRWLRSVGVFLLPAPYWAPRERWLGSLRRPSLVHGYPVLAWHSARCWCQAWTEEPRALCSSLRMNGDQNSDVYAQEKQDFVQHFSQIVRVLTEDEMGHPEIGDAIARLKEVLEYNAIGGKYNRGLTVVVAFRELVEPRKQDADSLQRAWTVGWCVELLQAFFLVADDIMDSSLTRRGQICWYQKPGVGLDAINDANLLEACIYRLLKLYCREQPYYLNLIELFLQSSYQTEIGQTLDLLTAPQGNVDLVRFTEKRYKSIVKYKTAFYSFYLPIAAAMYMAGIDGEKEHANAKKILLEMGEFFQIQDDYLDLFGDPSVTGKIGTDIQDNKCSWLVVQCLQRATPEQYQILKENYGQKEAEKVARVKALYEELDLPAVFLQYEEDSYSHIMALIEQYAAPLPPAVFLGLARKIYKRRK

Plasmodium falciparum = test: Antimalarial activity against Plasmodium falciparum infected in human RBC assessed as reduction in parasite growth measured after 72 hrs by flow cytometry analysis; type: functional, organism-based; details: Erythrocyte
[4] = Lipophilicity, logD of the compound in octanol-buffer at pH 7.4 measured after 18 hrs under shaking condition by reverse phase HPLC-MS analysis; type: physicochemical
[5] = Metabolic stability in human liver microsomes assessed as intrinsic clearance; type: ADME, Microsome; details: read-out: CLH
[6] = Metabolic stability in mouse liver microsomes assessed as intrinsic clearance; type: ADME, Microsome; details: read-out: CLH
MDR1 [7] = test: Apparent permeability in pig LLC-PK1 cells expressing MDR1 measured upto 360 mins; type: ADME, cell-based, Sus scrofa
MDR1 [8] = test: Efflux ratio of apparent permeability in pig LLC-PK1 cells expressing MDR1 measured upto 360 mins; type: ADME, cell-based, Sus scrofa
[9] = Kinetic solubility of compound; type: physicochemical; details: read-out: Kinetic_solubility
[10] = Fraction unbound in iv dosed C57BL/6J mouse; type: ADME, organism-based; details: in vivo
[11] = Clearance in iv dosed C57BL/6J mouse; type: ADME, organism-based; details: in vivo
[12] = MRT in iv dosed C57BL/6J mouse; type: ADME, organism-based; details: in vivo
[13] = Volume of distribution in iv dosed C57BL/6J mouse; type: ADME, organism-based; details: in vivo
[14] = AUC in iv dosed C57BL/6J mouse; type: ADME, organism-based; details: in vivo

Structure (SMILES): O=C(NCCCN1CCCCCC1)c1cc(-c2ccccc2)cs1
IC50 [1]: 2480 nM | inhibition (INH) [2]: Not Active | inhibition (INH) [3]: Not Active

Structure (SMILES): Cc1nc(C(=O)NCCCN2CCCCCC2)sc1-c1ccccc1
IC50 [1]: 1030 nM | inhibition (INH) [2]: Not Active | inhibition (INH) [3]: Not Active

Structure (SMILES): Cn1c(=O)c2cc(C(=O)NCCCN3CCCCCC3)sc2c2ccccc21
IC50 [1]: 820 nM | IC50 (Plasmodium falciparum): 90 nM | logD at 18 h [4]: 1.89 | microsomal CLint [5]: < 1 µL/min/mg | microsomal CLint [6]: 483 µL/min/mg | Papp at 6 h (MDR1 [7]): 4.1 ×10⁻⁶ cm/s | efflux ratio at 6 h (MDR1 [8]): 6.8 | solubility kinetic [9]: 69 µg/mL (≈ 174 µM) | inhibition (INH) [2]: Not Active | inhibition (INH) [3]: Not Active

Structure (SMILES): O=C(NCCCN1CCOCC1)c1cnc(-c2ccccc2)s1
IC50 [1]: 12000 nM | inhibition (INH) [2]: Not Active | inhibition (INH) [3]: Not Active

Structure (SMILES): O=C(NCCCN1CCCCCC1)c1ccc(-c2ccccc2)s1
IC50 [1]: 1340 nM | inhibition (INH) [2]: Not Active | inhibition (INH) [3]: Not Active

Structure (SMILES): Cn1c(-c2ccccc2)cnc1C(=O)NCCCN1CCCCCC1
IC50 [1]: 13000 nM | inhibition (INH) [2]: Not Active | inhibition (INH) [3]: Not Active

Structure (SMILES): O=C(NCCCN1CCCC1)c1cnc(-c2ccccc2)s1
IC50 [1]: 3100 nM | inhibition (INH) [2]: Not Active | inhibition (INH) [3]: Not Active

Structure (SMILES): COC1CCN(CCCNC(=O)c2cnc(-c3ccccc3)s2)CC1
IC50 [1]: 6060 nM | inhibition (INH) [2]: Not Active | inhibition (INH) [3]: Not Active

Structure (SMILES): O=C(NCCCN1CCCCCC1)c1nnc(-c2ccccc2)o1
IC50 [1]: 8120 nM | inhibition (INH) [2]: Not Active | inhibition (INH) [3]: Not Active

Structure (SMILES): CC1CCCN1CCCNC(=O)c1cnc(-c2ccccc2)s1 (stereo not drawn)
IC50 [1]: > 10000 nM | inhibition (INH) [2]: Not Active | inhibition (INH) [3]: Not Active

Structure (SMILES): O=C(NCCCN1CCCCCC1)c1cc(-c2ccccc2)on1
IC50 [1]: 1800 nM | inhibition (INH) [2]: Not Active | inhibition (INH) [3]: Not Active

Structure (SMILES): O=C(NCCCN1CCCCCC1)c1cc(-c2ccccc2)ccn1
IC50 [1]: 6080 nM | inhibition (INH) [2]: Not Active | inhibition (INH) [3]: Not Active

Structure (SMILES): Cc1nc(-c2ccccc2)sc1C(=O)NCCCN1CCCCCC1
IC50 [1]: 3790 nM | inhibition (INH) [2]: Not Active | inhibition (INH) [3]: Not Active

Structure (SMILES): O=C(NCCCN1CCCCCC1)c1ncc(-c2ccccc2)o1
IC50 [1]: 2380 nM | inhibition (INH) [2]: Not Active | inhibition (INH) [3]: Not Active

Structure (SMILES): Cc1c(C(=O)NCCCN2CCCCCC2)noc1-c1ccccc1
IC50 [1]: 2030 nM | inhibition (INH) [2]: Not Active | inhibition (INH) [3]: Not Active

Structure (SMILES): CC1CCN(CCCNC(=O)c2cnc(-c3ccccc3)s2)C1 (stereo not drawn)
IC50 [1]: 3150 nM | inhibition (INH) [2]: Not Active | inhibition (INH) [3]: Not Active

Structure (SMILES): O=C(NCCCN1CCCCCC1)c1ncc(-c2ccccc2)s1
IC50 [1]: 960 nM | inhibition (INH) [2]: Not Active | inhibition (INH) [3]: Not Active

Structure (SMILES): CN(C)CCCNC(=O)c1cnc(-c2ccccc2)s1
IC50 [1]: 6000 nM | inhibition (INH) [2]: Not Active | inhibition (INH) [3]: Not Active

Structure (SMILES): O=C(NCCCN1CCCCCC1)c1nnc(-c2ccccc2)s1
IC50 [1]: 1040 nM | inhibition (INH) [2]: Not Active | inhibition (INH) [3]: Not Active

Structure (SMILES): O=C(NCCCN1CCC(F)CC1)c1cnc(-c2ccccc2)s1
IC50 [1]: 2790 nM | inhibition (INH) [2]: Not Active | inhibition (INH) [3]: Not Active

Structure (SMILES): O=C(NCCCN1CCCCCC1=O)c1cnc(-c2ccccc2)s1
IC50 [1]: > 10000 nM | inhibition (INH) [2]: Not Active | inhibition (INH) [3]: Not Active

More lines, main results first:

IC50 [1]: 930 nM | logD at 18 h [4]: 2.11 | microsomal CLint [5]: 42 µL/min/mg | microsomal CLint [6]: 24 µL/min/mg | Papp at 6 h (MDR1 [7]): 8.7 ×10⁻⁶ cm/s | efflux ratio at 6 h (MDR1 [8]): 0.8 | solubility kinetic [9]: > 97 µg/mL | inhibition (INH) [2]: Not Active | inhibition (INH) [3]: Not Active
Structure (SMILES): O=C(CCCN1CCCCCC1)Nc1cnc(-c2ccc(F)cc2F)s1
IC50 (Plasmodium falciparum): 38 nM

IC50 [1]: 1940 nM | logD at 18 h [4]: 2.41 | microsomal CLint [5]: < 1 µL/min/mg | microsomal CLint [6]: 22 µL/min/mg | Papp at 6 h (MDR1 [7]): 9.2 ×10⁻⁶ cm/s | efflux ratio at 6 h (MDR1 [8]): 1.5 | solubility kinetic [9]: > 100 µg/mL | fraction unbound [10]: 0.09 | clearance [11]: 25.3 mL/min/kg | MRT [12]: 2.63 h | Vd [13]: 4 L/kg | AUC [14]: 65.8 ng·h/mL | inhibition (INH) [2]: Not Active | inhibition (INH) [3]: Not Active
Structure (SMILES): O=C(CCCN1CCCOCC1)Nc1cnc(-c2ccc(F)cc2F)s1
IC50 (Plasmodium falciparum): 74 nM

IC50 [1]: 1050 nM | logD at 18 h [4]: 2.3 | microsomal CLint [5]: 42 µL/min/mg | microsomal CLint [6]: 10 µL/min/mg | Papp at 6 h (MDR1 [7]): 5.2 ×10⁻⁶ cm/s | efflux ratio at 6 h (MDR1 [8]): 1.1 | solubility kinetic [9]: > 94 µg/mL | inhibition (INH) [2]: Not Active | inhibition (INH) [3]: Not Active
Structure (SMILES): O=C(CCCN1CCCCCC1)Nc1cnc(-c2ccc(F)c(F)c2)s1
IC50 (Plasmodium falciparum): 40 nM

IC50 [1]: 2150 nM | inhibition (INH) [2]: Not Active | inhibition (INH) [3]: Not Active
Structure (SMILES): O=C(NCCCN1CCCCC1)c1cnc(-c2ccccc2)s1

IC50 [1]: 1800 nM | logD at 18 h [4]: 1.97 | microsomal CLint [5]: 39 µL/min/mg | microsomal CLint [6]: < 1 µL/min/mg | Papp at 6 h (MDR1 [7]): 12.6 ×10⁻⁶ cm/s | efflux ratio at 6 h (MDR1 [8]): 0.9 | solubility kinetic [9]: > 91 µg/mL | inhibition (INH) [2]: Not Active | inhibition (INH) [3]: Not Active
Structure (SMILES): O=C(CCCN1CCCCCC1)Nc1nnc(-c2ccc(F)cc2)s1
IC50 (Plasmodium falciparum): 72 nM

IC50 [1]: 1420 nM | inhibition (INH) [2]: Not Active | inhibition (INH) [3]: Not Active
Structure (SMILES): O=C(CCCN1CCCCCC1)Nc1cnc(-c2cccc(F)c2)s1

IC50 [1]: 800 nM | inhibition (INH) [2]: Not Active | inhibition (INH) [3]: Not Active
Structure (SMILES): O=C(NCCCN1CCCCCC1)c1cnc(-c2ccccc2)s1

IC50 [1]: 1830 nM | inhibition (INH) [2]: Not Active | inhibition (INH) [3]: Not Active
Structure (SMILES): O=C(CCCN1CCCCCC1)Nc1cnc(-c2ccccc2)s1

IC50 [1]: 500 nM | inhibition (INH) [2]: Not Active | inhibition (INH) [3]: Not Active
Structure (SMILES): COc1cc(-c2ncc(NC(=O)CCCN3CCCCCC3)s2)ccc1F

IC50 [1]: 1330 nM | logD at 18 h [4]: 1.93 | microsomal CLint [5]: 29 µL/min/mg | microsomal CLint [6]: 18 µL/min/mg | Papp at 6 h (MDR1 [7]): 9.5 ×10⁻⁶ cm/s | efflux ratio at 6 h (MDR1 [8]): 1.1 | solubility kinetic [9]: > 97 µg/mL | inhibition (INH) [2]: Not Active | inhibition (INH) [3]: Not Active
Structure (SMILES): O=C(CCCN1CCCCCC1)Nc1cnc(-c2ccc(F)cc2)s1
IC50 (Plasmodium falciparum): 37 nM

IC50 [1]: 950 nM | inhibition (INH) [2]: Not Active | inhibition (INH) [3]: Not Active
Structure (SMILES): O=C(CCCN1CCCCCC1)Nc1cnc(-c2ccccc2F)s1

IC50 [1]: 1610 nM | logD at 18 h [4]: 1.81 | microsomal CLint [5]: 15 µL/min/mg | microsomal CLint [6]: 14 µL/min/mg | Papp at 6 h (MDR1 [7]): 10.5 ×10⁻⁶ cm/s | efflux ratio at 6 h (MDR1 [8]): 1 | solubility kinetic [9]: > 94 µg/mL | inhibition (INH) [2]: Not Active | inhibition (INH) [3]: Not Active
Structure (SMILES): O=C(CCCN1CCCCC1)Nc1cnc(-c2ccc(F)cc2)s1
IC50 (Plasmodium falciparum): 73 nM
